The source of these data is ChEMBL document CHEMBL5214957.

Format in all cases: cell-based
The target in assay [1] is T1, Potassium channel subfamily T member 1 (Homo sapiens, UniProt Q5JUK3).
T1 sequence (Q5JUK3 whole entry): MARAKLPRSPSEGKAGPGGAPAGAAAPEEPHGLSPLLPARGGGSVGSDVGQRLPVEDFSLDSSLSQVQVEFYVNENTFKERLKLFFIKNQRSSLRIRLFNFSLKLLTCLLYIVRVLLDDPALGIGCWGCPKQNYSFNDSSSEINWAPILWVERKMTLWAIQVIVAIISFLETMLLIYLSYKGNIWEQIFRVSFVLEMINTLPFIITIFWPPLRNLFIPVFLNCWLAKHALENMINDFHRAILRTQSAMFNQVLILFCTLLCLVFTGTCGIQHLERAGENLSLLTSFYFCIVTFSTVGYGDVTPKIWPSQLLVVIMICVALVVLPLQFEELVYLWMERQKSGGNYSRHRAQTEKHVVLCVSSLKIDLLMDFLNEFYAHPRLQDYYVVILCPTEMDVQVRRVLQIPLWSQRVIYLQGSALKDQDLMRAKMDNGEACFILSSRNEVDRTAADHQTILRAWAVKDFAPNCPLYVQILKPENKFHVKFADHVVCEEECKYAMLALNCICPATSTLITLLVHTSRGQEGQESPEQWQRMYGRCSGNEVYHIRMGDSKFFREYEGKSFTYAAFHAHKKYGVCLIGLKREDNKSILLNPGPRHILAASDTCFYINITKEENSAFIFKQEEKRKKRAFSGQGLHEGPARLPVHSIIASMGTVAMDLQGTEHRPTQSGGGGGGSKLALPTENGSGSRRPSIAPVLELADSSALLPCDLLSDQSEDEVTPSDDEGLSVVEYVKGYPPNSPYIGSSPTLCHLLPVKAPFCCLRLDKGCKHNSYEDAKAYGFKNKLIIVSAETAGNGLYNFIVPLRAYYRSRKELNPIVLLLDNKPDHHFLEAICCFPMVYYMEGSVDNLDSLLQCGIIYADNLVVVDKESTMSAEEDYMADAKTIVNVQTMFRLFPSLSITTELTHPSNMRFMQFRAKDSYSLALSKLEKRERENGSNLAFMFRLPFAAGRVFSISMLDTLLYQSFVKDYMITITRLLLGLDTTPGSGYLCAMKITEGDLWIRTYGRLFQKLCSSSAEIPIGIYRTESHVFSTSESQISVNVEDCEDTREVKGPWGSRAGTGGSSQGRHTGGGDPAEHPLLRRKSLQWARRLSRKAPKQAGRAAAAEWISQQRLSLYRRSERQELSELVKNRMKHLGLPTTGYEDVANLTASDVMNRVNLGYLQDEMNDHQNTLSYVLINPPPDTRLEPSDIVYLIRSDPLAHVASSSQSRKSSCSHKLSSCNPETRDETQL
The experiment in a line: Activation of wild-type human Slack expressed in HEK293 cells measured by thallium flux assay.

The target of assay [2] is T2, Potassium channel subfamily T member 2 (Homo sapiens, UniProt Q6UVM3).
T2 sequence (Q6UVM3 whole entry): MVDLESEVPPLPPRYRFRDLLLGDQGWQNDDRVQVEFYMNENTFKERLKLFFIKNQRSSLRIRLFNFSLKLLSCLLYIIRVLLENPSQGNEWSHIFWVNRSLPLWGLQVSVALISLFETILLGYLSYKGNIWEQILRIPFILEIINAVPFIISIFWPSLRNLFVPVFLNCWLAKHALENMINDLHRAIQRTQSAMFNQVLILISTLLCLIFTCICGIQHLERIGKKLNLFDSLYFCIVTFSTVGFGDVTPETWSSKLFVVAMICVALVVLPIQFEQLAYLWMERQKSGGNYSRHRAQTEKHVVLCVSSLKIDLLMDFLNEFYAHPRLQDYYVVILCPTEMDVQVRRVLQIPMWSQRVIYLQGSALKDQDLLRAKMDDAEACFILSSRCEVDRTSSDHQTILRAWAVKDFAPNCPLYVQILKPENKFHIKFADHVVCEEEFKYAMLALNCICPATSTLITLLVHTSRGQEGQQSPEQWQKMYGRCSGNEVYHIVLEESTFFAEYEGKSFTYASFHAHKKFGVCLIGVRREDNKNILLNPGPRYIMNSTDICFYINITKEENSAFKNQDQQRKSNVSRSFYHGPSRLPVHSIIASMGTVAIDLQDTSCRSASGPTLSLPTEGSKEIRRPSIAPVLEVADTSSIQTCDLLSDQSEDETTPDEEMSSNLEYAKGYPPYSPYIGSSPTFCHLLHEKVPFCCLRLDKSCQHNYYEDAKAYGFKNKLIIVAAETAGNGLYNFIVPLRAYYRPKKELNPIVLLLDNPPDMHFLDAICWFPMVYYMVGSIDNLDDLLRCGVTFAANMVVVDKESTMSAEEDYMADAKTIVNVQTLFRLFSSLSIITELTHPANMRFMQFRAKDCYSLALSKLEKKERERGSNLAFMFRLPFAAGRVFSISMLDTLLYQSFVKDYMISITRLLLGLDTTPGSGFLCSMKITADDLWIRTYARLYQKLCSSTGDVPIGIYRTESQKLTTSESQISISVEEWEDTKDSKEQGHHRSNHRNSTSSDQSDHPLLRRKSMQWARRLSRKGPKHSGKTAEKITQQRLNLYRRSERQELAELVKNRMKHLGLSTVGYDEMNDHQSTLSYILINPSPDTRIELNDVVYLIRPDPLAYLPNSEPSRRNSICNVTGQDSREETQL
The experiment in a line: Inhibition of Slick (unknown origin) expressed in HEK293 cells measured by thallium flux assay.

The target of assay [3] is T3, Calcium-activated potassium channel subunit alpha-1 (Homo sapiens, UniProt Q12791). As to the kind of experiment: Inhibition of Maxi-K (unknown origin) expressed in HEK293 cells measured by thallium flux assay.
T3 sequence (Q12791 whole entry): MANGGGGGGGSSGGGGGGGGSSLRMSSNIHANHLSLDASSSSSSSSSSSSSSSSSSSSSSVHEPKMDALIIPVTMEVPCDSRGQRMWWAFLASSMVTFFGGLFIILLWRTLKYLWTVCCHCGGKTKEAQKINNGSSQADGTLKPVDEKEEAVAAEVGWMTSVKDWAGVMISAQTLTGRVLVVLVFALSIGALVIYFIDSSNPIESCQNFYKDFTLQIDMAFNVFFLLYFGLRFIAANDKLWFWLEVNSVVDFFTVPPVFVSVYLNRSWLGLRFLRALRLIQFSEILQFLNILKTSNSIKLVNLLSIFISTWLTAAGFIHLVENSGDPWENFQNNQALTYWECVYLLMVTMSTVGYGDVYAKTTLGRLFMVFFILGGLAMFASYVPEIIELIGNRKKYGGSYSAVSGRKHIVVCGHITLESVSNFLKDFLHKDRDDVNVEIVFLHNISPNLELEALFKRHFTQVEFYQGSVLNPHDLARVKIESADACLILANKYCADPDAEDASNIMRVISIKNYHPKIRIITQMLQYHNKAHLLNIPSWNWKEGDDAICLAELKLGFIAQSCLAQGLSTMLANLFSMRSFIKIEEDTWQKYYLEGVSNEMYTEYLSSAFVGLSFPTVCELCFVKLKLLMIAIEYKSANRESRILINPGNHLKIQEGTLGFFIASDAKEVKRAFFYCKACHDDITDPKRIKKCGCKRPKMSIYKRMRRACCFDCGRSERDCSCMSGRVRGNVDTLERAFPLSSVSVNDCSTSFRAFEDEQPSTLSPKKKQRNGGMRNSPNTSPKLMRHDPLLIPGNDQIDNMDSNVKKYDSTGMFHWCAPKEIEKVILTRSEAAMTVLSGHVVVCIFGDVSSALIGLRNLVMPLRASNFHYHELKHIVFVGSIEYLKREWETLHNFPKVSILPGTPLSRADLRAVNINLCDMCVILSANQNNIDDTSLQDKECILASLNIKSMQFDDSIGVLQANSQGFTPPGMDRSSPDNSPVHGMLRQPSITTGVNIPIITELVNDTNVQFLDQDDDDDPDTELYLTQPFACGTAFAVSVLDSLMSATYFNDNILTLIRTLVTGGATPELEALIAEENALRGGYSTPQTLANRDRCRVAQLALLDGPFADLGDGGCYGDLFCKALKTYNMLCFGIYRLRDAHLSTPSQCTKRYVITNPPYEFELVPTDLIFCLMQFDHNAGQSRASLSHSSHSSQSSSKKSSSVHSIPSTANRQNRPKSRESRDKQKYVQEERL
Assay [4] addresses T1, Potassium channel subfamily T member 1. The experiment in a line: Inhibition of wild-type human Slack expressed in HEK293 cells measured by thallium flux assay.
Assay [5] in a line: Inhibition of Slack A934T mutant (unknown origin) expressed in HEK293 cells measured by whole-cell electrophysiology assay. The note with it: Homo sapiens.
Assay [6] can be described thus: Inhibition of human Slack A934T mutant expressed in HEK293 cells measured by thallium flux assay.
Assay [7] addresses T1, Potassium channel subfamily T member 1. As to the kind of experiment: Inhibition of wild-type Slack (unknown origin) expressed in HEK293 cells measured by whole-cell electrophysiology assay.
The target of assay [8] is T3, Calcium-activated potassium channel subunit alpha-1. The experiment in a line: Inhibition of Maxi-K (unknown origin) expressed in HEK293 cells at 30 uM measured by thallium flux assay relative to control.
Assay [9] has as its target T4, Potassium channel subfamily T member 2 (Homo sapiens) (UniProt Q6UVM3).
T4 sequence (whole entry): T2 sequence (Q6UVM3 whole entry)
As to the kind of experiment: Inhibition of Slick (unknown origin) expressed in HEK293 cells at 30 uM measured by thallium flux assay relative to control.

As to `COc1ccc(NC(=O)CN2CCN(S(=O)(=O)N3CCC(C)CC3)CC2)cc1`, the EC50 (usually the concentration at which the effect is half-maximal) in [1] is > 10 µM.

Compound `CC1CCN(S(=O)(=O)N2CCN(CC(=O)Nc3cc(Cl)ccc3F)CC2)CC1` returned an EC50 in assay [1] of 3.8 µM.

In the case of `COc1ccc(C(F)(F)F)cc1NC(=O)CN1CCN(S(=O)(=O)N2CCC(C)CC2)CC1`, the half-inhibitory concentration (IC50) (as a rule, the midpoint of a concentration-inhibition curve) is 4.1 µM in assay [2] and > 10 µM in [3].

Consider `COc1ccc(Cl)cc1NC(=O)CN(C)CCN(C)S(=O)(=O)N1CCC(C)CC1`, for which the half-inhibitory concentration (IC50) in assay [4] is > 10 µM. Turning to `COc1ccc(Cl)cc1NC(=O)N1CCCN(S(=O)(=O)N2CCC(C)CC2)CC1`, in [4], the IC50 amounted to 6.2 µM.

Regarding `COc1ccc(Cl)cc1NC(=O)CN1CCN(S(=O)(=O)N2CCC(C)CC2)CC1`, the IC50 in [5] is 1.6 µM; in [2] it was > 10 µM; in [4], 2.4 µM; in assay [6] it was 1.4 µM; in assay [7] it was 1.7 µM. The compound `CC1CCN(S(=O)(=O)N2CCN(CC(=O)Nc3cc(Cl)ccc3OC(C)C)CC2)CC1` gave an IC50 in assay [4] of 5.1 µM.

Regarding `COc1ccc(F)cc1NC(=O)CN1CCN(S(=O)(=O)N2CCC(C)CC2)CC1`, the IC50 in assay [4] worked out at 4.9 µM; in assay [6], 2.3 µM. For the compound `COc1ccc(Cl)cc1NC(=O)CN1CCN(S(=O)(=O)N2CCN(C(=O)N3CCCCCC3)CC2)CC1`, in [1], the concentration for a half-maximal effect (EC50) was > 10 µM. In the case of `COc1ccc(Cl)cc1NC(=O)CN1CCN(S(=O)(=O)N2CCC(C)CC2)[C@H](C)C1`, it took 13 µM to reach half-maximal inhibition in assay [4] (IC50). For `Cc1ccc(NC(=O)CN2CCN(S(=O)(=O)N3CCC(C)CC3)CC2)cc1`, in assay [1], the half-maximal effective concentration (EC50) stood at 4.1 µM.

As for `Cc1ccc(Cl)cc1NC(=O)CN1CCN(S(=O)(=O)N2CCC(C)CC2)CC1`, the concentration for half-maximal inhibition (IC50) in [4] is > 10 µM.

Consider `COc1ccc(Cl)cc1NC(=O)CN1CCN(S(=O)(=O)N2CCC(C)CC2)C[C@H]1C`, for which the results for the Efficacy in [8] and in assay [9] were 32% and 50%, respectively. In addition, the IC50 was 1.9 µM in assay [5]; > 10 µM in assay [2]; > 10 µM in assay [3]; 2.4 µM in assay [4]; 1.1 µM in [6]; 1.7 µM in assay [7].

In assay [4], `COc1ccc(Br)cc1NC(=O)CN1CCN(S(=O)(=O)N2CCC(C)CC2)CC1` showed an IC50 of 1.4 µM. `COc1ccc(Cl)cc1NC(=O)[C@H](C)N1CCN(S(=O)(=O)N2CCC(C(F)(F)F)CC2)CC1`: the IC50 in assay [2] was > 10 µM. For `CCCC1CCN(C(=O)N2CCN(S(=O)(=O)N3CCN(CC(=O)Nc4cc(Cl)ccc4OC)CC3)CC2)CC1`, the IC50 in assay [4] was > 10 µM. Regarding `COc1ccc(Cl)cc1NC(=O)CN1CCN(S(=O)(=O)N2CCN(S(=O)(=O)N3CCC(F)(F)C3)CC2)CC1`, the concentration for a half-maximal effect (EC50) in assay [1] is > 10 µM. As to `CCCOc1ccc(Cl)cc1NC(=O)CN1CCN(S(=O)(=O)N2CCC(C)CC2)CC1`, the IC50 in assay [4] is 4.3 µM; in assay [6], 3.1 µM. For the compound `COc1ccc(Cl)cc1NC(=O)CN1CCN(S(=O)(=O)N2CCN(C(=O)N3CCCCC3)CC2)CC1`, the EC50 in assay [1] was > 10 µM. Turning to `COc1ccccc1NC(=O)CN1CCN(S(=O)(=O)N2CCC(C)CC2)CC1`, the IC50 in assay [4] was > 10 µM. Take `COc1ccc(Cl)cc1NC(=O)N1CC2(CCN(S(=O)(=O)N3CCC(C)CC3)CC2)C1`: the EC50 in assay [1] was > 10 µM. In assay [1], `CC1CCN(S(=O)(=O)N2CCN(CC(=O)Nc3cccc(F)c3)CC2)CC1` showed a half-maximal effective concentration (EC50) of 4.6 µM. As to `CCOc1ccc(Cl)cc1NC(=O)CN1CCN(S(=O)(=O)N2CCC(C)CC2)CC1`, 7.1 µM corresponded to half-maximal inhibition in [4] (IC50). As for `COc1ccc(Cl)cc1NC(=O)N1CC2(C1)CN(S(=O)(=O)N1CCC(C)CC1)C2`, the IC50 in assay [4] was > 10 µM.

Take `COc1ccc(Cl)cc1NC(=O)CN1CCN(S(=O)(=O)N2CCC(C)CC2)C[C@@H]1C`: the values for the IC50 in assay [4] and in [6] were 3.5 µM and 2.1 µM, respectively.

In the case of `COc1ccc(C)cc1NC(=O)CN1CCN(S(=O)(=O)N2CCC(C)CC2)CC1`, the IC50 in [4] is > 10 µM.

Consider `COc1ccc(Cl)cc1NC(=O)CN1CCN(S(=O)(=O)N2CCC(C)CC2)[C@@H](C)C1`, for which, in assay [4], the 50% inhibitory concentration (IC50) was > 10 µM.
